Patent US9169252B2 (BRISTOL-MYERS SQUIBB COMPANY, priority 2014, dated 2015)
Like-named read-outs stand apart in the source and are kept apart here.

How the values were obtained:
IRAK4 = IRAK4 (Homo sapiens (Human), UniProt Q9NWZ3); test: IRAK4 Inhibition Assay; assay type: biochemical; conditions: ATP 500 μM, read-out: IRAK4 IC50
Summary of the method: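 IRAK4 combined with fluorescent substrate and compounds, reacted 60 min at room temperature, stopped with 35 mM EDTA. Substrate and phosphorylated product separated electrophoretically on a Caliper LabChip 3000 mobility-shift reader.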

[1] = system: TLR2 induced IL-6 in peripheral blood mononuclear cells (PBMCs); test: PBMC TLR2 Induced IL-6 Assay; assay type: cell-based, human; conditions: IL-6 by ELISA; for EC50: read-out: Cell EC50; for IC50: read-out: Cell IC50
Summary of the method: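 Lipoteichoic acid at 10 µg/ml served as TLR2 stimulus for 5 hours, following a 30-minute compound pretreatment at 37° C. Cells were Ficoll-isolated human PBMCs, 250000 cells/well, cultured in RPMI plus 10% heat-inactivated FCS.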

[2] = Homo sapiens, PBMC, human PBMCs, lipoteichoic acid stimulated
[3] = Homo sapiens, PBMC, PBMC TLR2 Induced IL-6 Assay, lipoteichoic acid stimulation

IRAK4, sequence (Q9NWZ3 whole entry, species assumed): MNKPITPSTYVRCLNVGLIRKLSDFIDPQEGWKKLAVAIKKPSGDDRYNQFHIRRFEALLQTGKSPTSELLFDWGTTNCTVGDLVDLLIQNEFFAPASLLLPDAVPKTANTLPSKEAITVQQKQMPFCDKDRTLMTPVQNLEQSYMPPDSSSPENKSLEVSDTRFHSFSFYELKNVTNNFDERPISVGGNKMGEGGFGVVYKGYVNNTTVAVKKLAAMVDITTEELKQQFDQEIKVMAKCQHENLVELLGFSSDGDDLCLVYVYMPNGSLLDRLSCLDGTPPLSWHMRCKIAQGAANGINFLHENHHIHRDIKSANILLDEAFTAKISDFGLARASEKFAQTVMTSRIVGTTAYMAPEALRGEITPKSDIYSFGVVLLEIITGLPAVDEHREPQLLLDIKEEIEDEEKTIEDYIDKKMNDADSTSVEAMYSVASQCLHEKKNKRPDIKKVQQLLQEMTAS

Row | IC50 (IRAK4; IRAK4 0.6 nM) [nM] | IC50 (IRAK4; IRAK4 Inhibition Assay) [nM] | SMILES | EC50 [1, 3] [nM] | further results
1 | 13.9 |  | CC(C)(O)[C@H](F)CNC(=O)c1cnc(-n2ccc3cc(C#N)cnc32)cc1N[C@@H]1CCNC1 [Example 466] |  | EC50 [1, 2]: 792 nM; IC50 [1, 2]: 130 nM
2 |  | 8.9 | CC(C)Nc1cc(-n2ncc3cc(C#N)cnc32)ncc1C(=O)NC[C@@H](F)C(=O)N1CCN(S(C)(=O)=O)CC1 [Example 257] | 136 | 
3 |  | 1.3 | CC(C)Nc1cc(-n2ccc3cnc(N)nc32)ncc1C(=O)NC[C@@H](F)C(C)(C)O [Example 186, (R)-6-(2-Amino-7H-pyrrolo[2,3-d]pyrimidin-7-yl)-N-(2-fluoro-3-hydroxy-3-methylbutyl)-4-(isopropylamino)nicotinamide] | 44 | 
4 |  | 1.7 | CS(=O)(=O)[C@H]1CC[C@H](NC(=O)c2cnc(-n3ccc4cc(C#N)cnc43)cc2NC2CC2)CC1 [Example 104, 6-(5-Cyano-1H-pyrrolo[2,3-b]pyridin-1-yl)-4-(cyclopropylamino)-N-((trans)-4-(methylsulfonyl)cyclohexyl)nicotinamide] | 67 | 
5 |  | 6.3 | CC(C)Nc1cc(-n2ncc3cc(Cl)cnc32)ncc1C(=O)NCC(F)C1(O)COC1 (centres unmarked) [Example 258] |  | IC50 [1, 3]: 42 nM
6 | 4.4 |  | COc1cccc(Nc2cc(-n3ccc4cc(C#N)cnc43)ncc2C(=O)NC[C@@H](F)C(C)(C)O)c1 [Example 418] |  | EC50 [1, 2]: 65 nM
7 |  | 1.9 | CC(CF)Nc1cc(-n2ccc3cncnc32)ncc1C(=O)NC[C@@H](F)C(C)(C)O (stereo partly drawn) [Example 113, N—((R)-2-Fluoro-3-hydroxy-3-methylbutyl)-4-((1-fluoropropan-2-yl)amino)-6-(7H-pyrrolo[2,3-d]pyrimidin-7-yl)nicotinamide] | 222 | 
8 | 2.8 |  | CC(CCF)Nc1cc(-n2ccc3cc(C#N)cnc32)ncc1C(=O)NC[C@@H](F)C(C)(C)O (single isomer, unassigned) [Example 427] |  | EC50 ([1]; human PBMCs, lipoteichoic acid stimulated): 89 nM

Further lines, the compound ahead of its results:

Row | SMILES | IC50 (IRAK4; IRAK4 0.6 nM) [nM] | IC50 (IRAK4; IRAK4 Inhibition Assay) [nM] | EC50 [1, 3] [nM] | further results
9 | CCCn1cc(Nc2cc(-n3cnc4cc(Cl)cnc43)ncc2C(=O)NC[C@@H](F)C(C)(C)O)cn1 [Example 382] |  | 2.5 |  | IC50 [1, 3]: 482 nM
10 | CC(C)Nc1cc(-n2ncc3cc(C#N)cnc32)ncc1C(=O)NCCC1(O)CCOCC1 [Example 235] |  | 6.1 | 184 | 
11 | CCOC(C)(C)[C@H](F)CNC(=O)c1cnc(-n2ccc3cc(C#N)cnc32)cc1NC(C)C [Example 448] | 2.4 |  |  | EC50 [1, 2]: 175 nM
12 | CC(C)Nc1cc(-n2ncc3cc(C#N)cnc32)ncc1C(=O)Nc1ccc(N2CCOCC2)cn1 [Example 221] |  | 8.4 | 230 | 
13 | CCNc1cc(-n2ccc3cc(C(N)=O)cnc32)ncc1C(=O)NC[C@@H](F)C(C)(C)O [Example 123, (R)-1-(4-(Ethylamino)-5-((2-fluoro-3-hydroxy-3-methylbutyl)carbamoyl)pyridin-2-yl)-1H-pyrrolo[2,3-b]pyridine-5-carboxamide] |  | 4.5 | 128 | 
14 | CC(C)Nc1cc(-n2ncc3cc(C#N)cnc32)ncc1C(=O)NCCC1(O)CCCC1 [Example 252] |  | 3.6 |  | IC50 [1, 3]: 197 nM
15 | CC(C)(C)Nc1cc(-n2ncc3cc(C#N)cnc32)ncc1C(=O)NC[C@@H](F)C(C)(C)O [Example 286] |  | 1.7 |  | IC50 [1, 3]: 158 nM
16 | CC(C)(O)[C@H](F)CNC(=O)c1cnc(-n2ncc3cc(C#N)cnc32)cc1N[C@H]1CC[C@H](NC(=O)C2CC2)CC1 [Example 623] | 5.2 |  |  | IC50 [1, 2]: 484 nM
17 | CC(C)(O)CNc1cc(-n2ccc3cncnc32)ncc1C(=O)NC[C@@H](F)C(C)(C)O [Example 42, (R)—N-(2-fluoro-3-hydroxy-3-methylbutyl)-4-((2-hydroxy-2-methylpropyl)amino)-6-(7H-pyrrolo[2,3-d]pyrimidin-7-yl)nicotinamide] |  | 13.6 | 612 | IC50 [1, 3]: 940 nM
18 | CC(C)(O)[C@H](F)CNC(=O)c1cnc(-n2ncc3cc(C#N)cnc32)cc1NC1CN(c2ncc(F)cn2)C1 [Example 539] | 6.3 |  |  | EC50 [1, 2]: 256 nM
